Data taken from patent US11718596B2, “Amyloid targeting agents and methods of using the same” (The Regents of the University of California, priority 2014, dated 2023).
In brackets after ≈: the same amount, converted by molar mass.

Assays:
[1] = Hydrolytic decomposition in PBS by HPLC; assay type: physicochemical; conditions: PBS with 5% DMSO, 25° C., read-out: t1/2 for hydrolysis (converted)
Description: In certain in vivo environments (especially at high or low pH or in the presence of esterases), ANCA-11 is expected to decompose very rapidly due to the poor stability of its ester functionality. The amide functionality in Compound 1 alleviates the problem of hydrolytic instability inherent to ANCA-11.

[2] = test system: amyloids derived from amyloid-β, PrP, and α-synuclein; assay type: binding
[3] = test system: amyloid deposits in murine AD neuronal tissue; assay: Tissue staining of amyloid deposits in AD mouse brain sections; conditions: for fluorescence labeling of amyloid deposits in hippocampal brain sections: mouse model for Alzheimer's disease, FIG. 13; for staining of amyloid deposits in murine AD neuronal tissue: figure legends
[4] = target: aggregated Aβ(1-42) peptide (Homo sapiens, UniProt P05067); conditions: in vitro; characteristic fluorescence upon binding to Alzheimer's related amyloids
[5] = test system: prion amyloid deposits in the retina
Solubility studies = conditions: lower pH and higher buffer concentration
[6] = target: amyloid deposits in the retina (Homo sapiens, UniProt P05067); assay: Ex vivo retina analysis of J20 mice after systemic (tail vein) dosing; conditions: J20 mouse, 30 minutes prior to sacrifice, co-localizes with anti-Aβ antibody
Sequence of amyloid deposits in the retina (P05067 672-713 limits assumed): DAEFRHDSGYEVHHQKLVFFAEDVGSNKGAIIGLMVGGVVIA

Sequence of aggregated Aβ(1-42) peptide (P05067 672-713): as the sequence (P05067 672-713 limits assumed) above

## COCCOCCOCCOC(=O)/C(C#N)=C/c1ccc2cc(N3CCCCC3)ccc2c1 [ANCA-11, (E)-2-(2-(2-methoxyethoxy)ethoxy)ethyl 2-cyano-3-(6-(piperidin-1-yl)naphthalen-2-yl)acrylate, reference compound]
[1]
  half-life: ~11 h

## COCCOCCOCCNC(=O)/C(C#N)=C/c1ccc2cc(N3CCCCC3)ccc2c1 [Compound 1, (E)-2-Cyano-N-(2-(2-(2-methoxyethoxy)ethoxy)ethyl)-3-(6-(piperidin-1-yl)naphthalen-2-yl)acrylamide]
[2]
  discrimination of amyloids of different disease origin based on color of emission: can distinguish between amyloids of different disease origin based on color of emission
[3]
  fluorescence labeling of amyloid deposits in hippocampal brain sections: fluorescence labeling of amyloid deposits
[1]
  half-life: ~150 h
[4]
  ability to bind selectively to amyloids: bind selectively to amyloids
[5]; mice inoculated with GPI-anchorless PrP, intraperitoneal injection
  visualization of amyloid deposits in the retina of live mice: allowed for the visualization of amyloid deposits in the retina
[5]; wt mouse, fluorescence image immediately after IP injection
  accumulation in blood and retinal tissue after IP injection: immediately accumulates in the blood and in the retinal tissue
physchem; aqueous buffer, solubility at lower pH and higher acidic buffer strength
  solubility: > 6000 µg/mL
physchem; aqueous with cosolvent or surfactant or cyclodextrin, solubility in surfactants
  solubility: > 5000 µg/mL
physchem; aqueous with cosolvent or surfactant or cyclodextrin, solubility in the other water miscible solvents listed
  solubility: 2000 to 3000 µg/mL (≈ 4.43 to 6.64 mM)
physchem; oil or lipid, solubility in all oils tested
  solubility: > 5000 µg/mL
physchem; organic solvent or mixture, Solubility (mg/mL)
  solubility: 20000 µg/mL (≈ 44.3 mM)
physchem; organic solvent or mixture, solubility in water miscible solvents: alcohols
  solubility: > 5000 µg/mL
physchem; pH 2, aqueous buffer, solubility in acid buffers
  solubility: ≤ 350 µg/mL
physchem; pH 2.5, aqueous buffer, Conc (mg/mL)
  solubility: 1630 µg/mL (≈ 3.61 mM)
physchem; pH 7.4, aqueous buffer, Conc (mg/mL)
  solubility: 7.4 µg/mL (≈ 0.0164 mM)
physchem; water, Conc (mg/mL)
  solubility: 3.1 µg/mL (≈ 0.00686 mM)
physchem; water, solubility in water
  solubility: 3 µg/mL (≈ 0.00664 mM)
Solubility studies
  fold increase of solubility in acid buffer vs water: 100 fold
[6]
  crossing of the blood-retina barrier: can cross the blood-retina barrier

## COCCOCCOCCNS(=O)(=O)/C(C#N)=C/c1ccc2cc(N3CCCCC3)ccc2c1 [Compound 2, (E)-1-cyano-N-(2-(2-(2-methoxyethoxy)ethoxy)ethyl)-2-(6-(piperidin-1-yl)naphthalen-2-yl)ethenesulfonamide]
[3]
  fluorescence labeling of amyloid deposits in hippocampal brain sections: fluorescence labeling of amyloid deposits

## COCCOCCOCCOCCOCCOCCNC(=O)/C(C#N)=C/c1ccc2cc(N3CCCCC3)ccc2c1 [Compound 3, (E)-2-cyano-N-(2,5,8,11,14,17-hexaoxanonadecan-19-yl)-3-(6-(piperidin-1-yl)naphthalen-2-yl)acrylamide]
[3]
  staining of amyloid deposits in murine AD neuronal tissue: staining of amyloid deposits

## N#C/C(=C\c1ccc2cc(N3CCCCC3)ccc2c1)C(=O)NCC(O)CO (stereo not shown) [Compound 5, (E)-2-cyano-N-(2,3-dihydroxypropyl)-3-(6-(piperidin-1-yl)naphthalen-2-yl)acrylamide]
[3]
  staining of amyloid deposits in murine AD neuronal tissue: staining of amyloid deposits

## COC1OC(Cn2cc(COCCOCCOCCNC(=O)/C(C#N)=C/c3ccc4cc(N5CCCCC5)ccc4c3)nn2)C(O)C(O)C1O (stereo not shown) [Compound 19, (E)-2-cyano-3-(6-(piperidin-1-yl)naphthalen-2-yl)-N-(2-(2-(2-((1-((3,4,5-trihydroxy-6-methoxytetrahydro-2H-pyran-2-yl)methyl)-1H-1,2,3-triazol-4-yl)methoxy)ethoxy)ethoxy)ethyl)acrylamide]
[3]
  staining of amyloid deposits in murine AD neuronal tissue: staining of amyloid deposits

## COC1OC(Cn2cc(CNC(=O)/C(C#N)=C/c3ccc4cc(N5CCCCC5)ccc4c3)nn2)C(O)C(O)C1O (stereo not shown) [Compound 20, (E)-2-cyano-3-(6-(piperidin-1-yl)naphthalen-2-yl)-N-((1-((3,4,5-trihydroxy-6-methoxytetrahydro-2H-pyran-2-yl)methyl)-1H-1,2,3-triazol-4-yl)methyl)acrylamide]
[3]
  staining of amyloid deposits in murine AD neuronal tissue: staining of amyloid deposits
